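All cell lines were grown in 96-well plates and treated with compound for 48 hours. TGI: concentration producing complete growth inhibition.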
Legend:
Assay in all cases: NCI tumour cell line growth inhibition, 48 h
786-0 renal = test system: 786-0 renal
A498 renal = test system: A498 renal
A549 NSCLC = test system: A549 NSCLC
ACHN renal = test system: ACHN renal
BT-549 breast = test system: BT-549 breast
CAKI-1 renal = test system: CAKI-1 renal
CCRF-CEM leukemia = test system: CCRF-CEM leukemia
COLO 205 colon = test system: COLO 205 colon
DU-145 prostate = test system: DU-145 prostate
EKVX NSCLC = test system: EKVX NSCLC
HCT-116 colon = test system: HCT-116 colon
HCT-15 colon = test system: HCT-15 colon
HL-60(TB) leukemia = test system: HL-60(TB) leukemia
HOP-62 NSCLC = test system: HOP-62 NSCLC
HOP-92 NSCLC = test system: HOP-92 NSCLC
HS 578T breast = test system: HS 578T breast
HT29 colon = test system: HT29 colon
IGROV1 ovarian = test system: IGROV1 ovarian
K-562 leukemia = test system: K-562 leukemia
KM12 colon = test system: KM12 colon
LOX IMVI melanoma = test system: LOX IMVI melanoma
M14 melanoma = test system: M14 melanoma
MALME-3M melanoma = test system: MALME-3M melanoma
MCF7 breast = test system: MCF7 breast
MDA-MB-231 breast = test system: MDA-MB-231 breast
MDA-MB-435 = test system: MDA-MB-435
MDA-N = test system: MDA-N
MOLT-4 leukemia = test system: MOLT-4 leukemia
NCI-H226 lung = test system: NCI-H226 lung
NCI-H23 lung = test system: NCI-H23 lung
NCI-H460 lung = test system: NCI-H460 lung
NCI-H522 lung = test system: NCI-H522 lung
NCI/ADR-RES ovarian = test system: NCI/ADR-RES ovarian
OVCAR-3 ovarian = test system: OVCAR-3 ovarian
OVCAR-4 ovarian = test system: OVCAR-4 ovarian
OVCAR-5 ovarian = test system: OVCAR-5 ovarian
OVCAR-8 ovarian = test system: OVCAR-8 ovarian
PC-3 prostate = test system: PC-3 prostate
RPMI-8226 leukemia = test system: RPMI-8226 leukemia
RXF 393 renal = test system: RXF 393 renal
SF-268 CNS = test system: SF-268 CNS
SF-295 CNS = test system: SF-295 CNS
SF-539 CNS = test system: SF-539 CNS
SK-MEL-2 melanoma = test system: SK-MEL-2 melanoma
SK-MEL-28 melanoma = test system: SK-MEL-28 melanoma
SK-MEL-5 melanoma = test system: SK-MEL-5 melanoma
SK-OV-3 ovarian = test system: SK-OV-3 ovarian
SN12C renal = test system: SN12C renal
SNB-19 CNS = test system: SNB-19 CNS
SNB-75 CNS = test system: SNB-75 CNS
SW-620 colon = test system: SW-620 colon
T-47D breast = test system: T-47D breast
TK-10 renal = test system: TK-10 renal
U251 CNS = test system: U251 CNS
UACC-62 melanoma = test system: UACC-62 melanoma
UO-31 renal = test system: UO-31 renal
HCC-2998 colon = test system: HCC-2998 colon
SR leukemia = test system: SR leukemia
UACC-257 melanoma = test system: UACC-257 melanoma

In the case of COC(=O)Nc1nc2ccc(NS(=O)(=O)c3ccc(Cl)cc3)cc2[nH]1, the TGI (786-0 renal) is reported as 56.3 µM, the TGI (A498 renal) is reported as 9.91 µM and the TGI (A549 NSCLC) is reported as 72.1 µM. It also gave a TGI (ACHN renal) greater than 100 µM, a TGI (BT-549 breast) of 55.2 µM and a TGI (CAKI-1 renal) of 21.1 µM. The TGI (CCRF-CEM leukemia) was 56.9 µM, the TGI (COLO 205 colon) was 24.5 µM and the TGI (DU-145 prostate) was 62.6 µM. The TGI (EKVX NSCLC) was 33.2 µM, the TGI (HCT-116 colon) was 11.1 µM and the TGI (HCT-15 colon) was greater than 100 µM. It also gave a TGI (HL-60(TB) leukemia) of 12.6 µM, a TGI (HOP-62 NSCLC) of 31.5 µM and a TGI (HOP-92 NSCLC) of 8.55 µM. For the same compound, the TGI (HS 578T breast) was 8.86 µM, the TGI (HT29 colon) was 15.5 µM and the TGI (IGROV1 ovarian) was 7.81 µM. It also gave a TGI (K-562 leukemia) greater than 100 µM, a TGI (KM12 colon) of 14.9 µM and a TGI (LOX IMVI melanoma) of 16.9 µM. The TGI (M14 melanoma) was 23.4 µM, the TGI (MALME-3M melanoma) was 43.7 µM and the TGI (MCF7 breast) was 35.7 µM. It also gave a TGI (MDA-MB-231 breast) of 28.5 µM, a TGI (MDA-MB-435) of 5.5 µM and a TGI (MDA-N) of 5.93 µM. The TGI (MOLT-4 leukemia) was greater than 100 µM, the TGI (NCI-H226 lung) was 47.2 µM and the TGI (NCI-H23 lung) was 36.9 µM. For the same compound, the TGI (NCI-H460 lung) was 43.1 µM, the TGI (NCI-H522 lung) was 8.19 µM and the TGI (NCI/ADR-RES ovarian) was 47.7 µM. The TGI (OVCAR-3 ovarian) was 10.7 µM, the TGI (OVCAR-4 ovarian) was 51.5 µM and the TGI (OVCAR-5 ovarian) was 44.6 µM. For the same compound, the TGI (OVCAR-8 ovarian) was 54.7 µM, the TGI (PC-3 prostate) was 54.3 µM and the TGI (RPMI-8226 leukemia) was 26.8 µM. The TGI (RXF 393 renal) was 26.4 µM, the TGI (SF-268 CNS) was 67 µM and the TGI (SF-295 CNS) was 19.2 µM. It also gave a TGI (SF-539 CNS) of 30.4 µM, a TGI (SK-MEL-2 melanoma) of 26.8 µM and a TGI (SK-MEL-28 melanoma) of 27.3 µM. For the same compound, the TGI (SK-MEL-5 melanoma) was 16.7 µM, the TGI (SK-OV-3 ovarian) was 44.2 µM and the TGI (SN12C renal) was 72.3 µM. For the same compound, the TGI (SNB-19 CNS) was 29.6 µM, the TGI (SNB-75 CNS) was 7.59 µM and the TGI (SW-620 colon) was greater than 100 µM. The TGI (T-47D breast) was 60.7 µM, the TGI (TK-10 renal) was 17.7 µM and the TGI (U251 CNS) was 47.5 µM. The TGI (UACC-62 melanoma) was 33.5 µM and the TGI (UO-31 renal) was 40.7 µM.

With CN/N=C(/C=C/c1ccccc1)C(C)C the TGI (786-0 renal) was greater than 100 µM, the TGI (A549 NSCLC) was greater than 100 µM and the TGI (ACHN renal) was greater than 100 µM. It also gave a TGI (BT-549 breast) greater than 100 µM, a TGI (CAKI-1 renal) greater than 100 µM and a TGI (CCRF-CEM leukemia) greater than 100 µM. The TGI (COLO 205 colon) was greater than 100 µM, the TGI (DU-145 prostate) was greater than 100 µM and the TGI (EKVX NSCLC) was greater than 100 µM. It also gave a TGI (HCC-2998 colon) greater than 100 µM, a TGI (HCT-116 colon) greater than 100 µM and a TGI (HCT-15 colon) greater than 100 µM. For the same compound, the TGI (HL-60(TB) leukemia) was greater than 100 µM, the TGI (HOP-62 NSCLC) was greater than 100 µM and the TGI (HS 578T breast) was greater than 100 µM. For the same compound, the TGI (HT29 colon) was greater than 100 µM, the TGI (IGROV1 ovarian) was greater than 100 µM and the TGI (K-562 leukemia) was greater than 100 µM. It also gave a TGI (KM12 colon) greater than 100 µM, a TGI (LOX IMVI melanoma) greater than 100 µM and a TGI (M14 melanoma) greater than 100 µM. The TGI (MALME-3M melanoma) was greater than 100 µM, the TGI (MCF7 breast) was greater than 100 µM and the TGI (MDA-MB-435) was greater than 100 µM. It also gave a TGI (MDA-N) greater than 100 µM, a TGI (MOLT-4 leukemia) greater than 100 µM and a TGI (NCI-H226 lung) greater than 100 µM. It also gave a TGI (NCI-H23 lung) greater than 100 µM, a TGI (NCI-H522 lung) greater than 100 µM and a TGI (NCI/ADR-RES ovarian) greater than 100 µM. The TGI (OVCAR-3 ovarian) was greater than 100 µM, the TGI (OVCAR-4 ovarian) was greater than 100 µM and the TGI (OVCAR-5 ovarian) was greater than 100 µM. It also gave a TGI (OVCAR-8 ovarian) greater than 100 µM, a TGI (PC-3 prostate) greater than 100 µM and a TGI (RPMI-8226 leukemia) greater than 100 µM. It also gave a TGI (RXF 393 renal) greater than 100 µM, a TGI (SF-268 CNS) greater than 100 µM and a TGI (SF-295 CNS) greater than 100 µM. For the same compound, the TGI (SF-539 CNS) was greater than 100 µM, the TGI (SK-MEL-2 melanoma) was greater than 100 µM and the TGI (SK-MEL-28 melanoma) was greater than 100 µM. For the same compound, the TGI (SK-MEL-5 melanoma) was greater than 100 µM, the TGI (SK-OV-3 ovarian) was greater than 100 µM and the TGI (SN12C renal) was greater than 100 µM. For the same compound, the TGI (SNB-19 CNS) was greater than 100 µM, the TGI (SNB-75 CNS) was greater than 100 µM and the TGI (SR leukemia) was greater than 100 µM. The TGI (SW-620 colon) was greater than 100 µM, the TGI (T-47D breast) was greater than 100 µM and the TGI (TK-10 renal) was greater than 100 µM. For the same compound, the TGI (U251 CNS) was greater than 100 µM, the TGI (UACC-257 melanoma) was greater than 100 µM and the TGI (UACC-62 melanoma) was greater than 100 µM. It also gave a TGI (UO-31 renal) greater than 100 µM.

In the case of CC[C@@]1(C[C@H]2C[C@@]3(C(=O)OC)c4[nH]c5ccccc5c4CCN3C2=S)COC2(CCCCC2)O1, the TGI (786-0 renal) is reported as greater than 100 µM, the TGI (A498 renal) is reported as greater than 100 µM and the TGI (A549 NSCLC) is reported as greater than 100 µM. For the same compound, the TGI (ACHN renal) was greater than 100 µM, the TGI (BT-549 breast) was 41.6 µM and the TGI (CAKI-1 renal) was greater than 100 µM. It also gave a TGI (CCRF-CEM leukemia) greater than 100 µM, a TGI (COLO 205 colon) greater than 100 µM and a TGI (DU-145 prostate) greater than 100 µM. It also gave a TGI (EKVX NSCLC) greater than 100 µM, a TGI (HCC-2998 colon) greater than 100 µM and a TGI (HCT-116 colon) greater than 100 µM. The TGI (HCT-15 colon) was greater than 100 µM, the TGI (HL-60(TB) leukemia) was greater than 100 µM and the TGI (HOP-62 NSCLC) was greater than 100 µM. For the same compound, the TGI (HOP-92 NSCLC) was greater than 100 µM, the TGI (HS 578T breast) was greater than 100 µM and the TGI (HT29 colon) was greater than 100 µM. For the same compound, the TGI (IGROV1 ovarian) was greater than 100 µM, the TGI (K-562 leukemia) was greater than 100 µM and the TGI (KM12 colon) was 67.8 µM. For the same compound, the TGI (LOX IMVI melanoma) was greater than 100 µM, the TGI (M14 melanoma) was greater than 100 µM and the TGI (MALME-3M melanoma) was greater than 100 µM. The TGI (MCF7 breast) was greater than 100 µM, the TGI (MDA-MB-435) was greater than 100 µM and the TGI (MDA-N) was greater than 100 µM. The TGI (MOLT-4 leukemia) was greater than 100 µM, the TGI (NCI-H23 lung) was greater than 100 µM and the TGI (NCI-H460 lung) was greater than 100 µM. The TGI (NCI-H522 lung) was greater than 100 µM, the TGI (NCI/ADR-RES ovarian) was greater than 100 µM and the TGI (OVCAR-3 ovarian) was greater than 100 µM. It also gave a TGI (OVCAR-4 ovarian) greater than 100 µM, a TGI (OVCAR-5 ovarian) greater than 100 µM and a TGI (OVCAR-8 ovarian) greater than 100 µM. The TGI (PC-3 prostate) was greater than 100 µM, the TGI (RXF 393 renal) was greater than 100 µM and the TGI (SF-268 CNS) was greater than 100 µM. It also gave a TGI (SF-295 CNS) greater than 100 µM, a TGI (SF-539 CNS) greater than 100 µM and a TGI (SK-MEL-2 melanoma) greater than 100 µM. For the same compound, the TGI (SK-MEL-5 melanoma) was 39 µM, the TGI (SK-OV-3 ovarian) was greater than 100 µM and the TGI (SN12C renal) was greater than 100 µM. The TGI (SNB-19 CNS) was greater than 100 µM, the TGI (SNB-75 CNS) was greater than 100 µM and the TGI (SR leukemia) was greater than 100 µM. For the same compound, the TGI (SW-620 colon) was 36.2 µM, the TGI (T-47D breast) was greater than 100 µM and the TGI (TK-10 renal) was 87.7 µM. For the same compound, the TGI (U251 CNS) was greater than 100 µM, the TGI (UACC-257 melanoma) was greater than 100 µM and the TGI (UACC-62 melanoma) was greater than 100 µM. The TGI (UO-31 renal) was greater than 100 µM.
